Holding throughout (assay type): cell-based
In one experiment the test system is S. aureus. Put plainly: Inhibition of growth of planktonic S. aureus, OD600 (Example 8). Conditions: in combination with gentamicin, compared to gentamicin alone; 6 h; phospholipid 256, 512, 1024 μg/ml. Here is the method: (§1) We performed in vitro studies of the capacity of phospholipids together with antibiotics to inhibit the growth of planktonic bacteria. The tests were conducted as follows. Freshly grown S. aureus was quantitated and placed in 96-well plates together with gentamicin alone, phospholipids plus gentamicin, or control solutions. Two different phospholipids (MAPCHO-10 and MAPCHO-12) were tested at three different phospholipid test concentrations (256 μg/ml, 512 μg/ml, and 1024 μg/ml). After 24 hours at 37 degrees C., media was removed and fresh medium was added and the 96-well plates were incubated at 37 degrees C. for 6 hours. Bacterial density was then analyzed and measured at OD600.

Experiment [1] relates to S. aureus biofilm formation. The experiment is described as follows: Prevention of S. aureus biofilm formation at 6 h, crystal violet (Example 9). Conditions: in combination with gentamicin, phospholipid 256, 512, 1024 μg/ml. Here is the method:
We performed in vitro tests of the capacity of phospholipids together with antibiotics to prevent formation of biofilms. Freshly grown S. aureus was quantitated and placed in 96-well plates together with gentamicin alone, phospholipids plus gentamicin, or control solutions. Two different phospholipids ([…]-10 and […]-12) were tested at three different phospholipid test concentrations (256 μg/ml, 512 μg/ml, and 1024 μg/ml). After 6 hours at 37 degrees C., the fluids were removed and the wells stained with crystal violet, and then the density of crystal violet in the wells was quantitated.

For a further experiment, the system named is MRSA. The experiment is described as follows: Inhibition of growth of planktonic MRSA, OD600 (Example 10). Conditions: in combination with gentamicin, compared to gentamicin alone; 6 h; phospholipid 256, 512, 1024 μg/ml. Here is the method: as §1, with “MRSA” for “S. aureus”
The test system of experiment [2] is preformed P. aeruginosa biofilms. The experiment is described as follows: Disruption of preformed P. aeruginosa biofilms, crystal violet (Example 3). Particulars: for disruption of preformed P. aeruginosa biofilms: 6 h time point; for eradication of preformed P. aeruginosa biofilms: 24 h time point, FIGS. 5A-5C. How it is done: We performed in vitro studies of the capacity of phospholipids together with antibiotics to disrupt preformed bacterial biofilms. The tests were conducted as follows. Biofilm formation was obtained by culturing P. aeruginosa in cation-adjusted Mueller Hinton Broth after incubation at 37 degrees C. for 24 hours in 96 well plates. The medium was then removed and replaced by treatment solutions of gentamicin, phospholipids plus gentamicin, or control solutions. Either three or four different phospholipids (MAPCHO-10, MAPCHO-12, MAPCHO-14, and MAPCHO-16) were tested at three different phospholipid test concentrations (512 μg/ml, 1024 μg/ml, and 2048 μg/ml). After 24 hours at 37 degrees C., media was removed and fresh medium was added and the 96-well plates were incubated at 37 degrees C. for either 6 hours or 24 hours. Media were then removed and biofilm at the base of the wells was stained with crystal violet and quantitated.

Experiment [3] has as its system P. aeruginosa. The experiment is described as follows: Inhibition of growth of planktonic P. aeruginosa, OD600 (Example 4). Conditions: in combination with gentamicin, compared to gentamicin alone, phospholipid 1024 and 2048 μg/ml. Here is the method:
We performed in vitro studies of the capacity of phospholipids together with antibiotics to inhibit the growth of planktonic bacteria. The tests were conducted as follows. Freshly grown P. aeruginosa was quantitated and placed in 96-well plates together with gentamicin alone, phospholipids plus gentamicin, or control solutions. Four different phospholipids (MAPCHO-10, MAPCHO-12, MAPCHO-14, and MAPCHO-16) were tested at two different phospholipid test concentrations (1024 μg/ml and 2048 μg/ml). After 24 hours at 37 degrees C., media was removed and fresh medium was added and the 96-well plates were incubated at 37 degrees C. for either 6 hours or 24 hours. Bacterial density was then analyzed and measured at OD600.

Experiment [4] relates to P. aeruginosa biofilm formation. The experiment is described as follows: Prevention of P. aeruginosa biofilm formation, crystal violet (Example 5). Particulars: 24 h. Here is the method:
We performed in vitro tests of the capacity of phospholipids together with antibiotics to prevent formation of biofilms. Freshly grown P. aeruginosa was quantitated and placed in 96-well plates together with gentamicin alone, phospholipids plus gentamicin, or control solutions. Four different phospholipids (MAPCHO-10, MAPCHO-12, MAPCHO-14, and MAPCHO-16) were tested at two different phospholipid test concentrations (1024 μg/ml and 2048 μg/ml). After 24 hours at 37 degrees C., the fluids were removed and the wells stained with crystal violet, and then the density of crystal violet in the wells was quantitated.

Experiment [5] relates to P. aeruginosa. Put plainly: Prevention of P. aeruginosa bacterial growth, OD600 after 24 h (Example 6). Particulars: in combination with gentamicin, phospholipid 512, 1024, 2048 μg/ml, FIGS. 9A-9C. How it is done:
We performed in vitro studies of the capacity of phospholipids together with antibiotics to prevent bacterial growth. Freshly grown P. aeruginosa was quantitated and placed in 96-well plates together with gentamicin alone, phospholipids plus gentamicin, or control solutions. Three different phospholipids (MAPCHO-12, MAPCHO-14, and MAPCHO-16) were tested at three different phospholipid test concentrations (512 μg/ml, 1024 μg/ml, and 2048 μg/ml). After 24 hours at 37 degrees C., bacterial density was then analyzed and measured at OD600.

For experiment [6], the system named is P. aeruginosa in preformed biofilm. The experiment is described as follows: Bacterial density of P. aeruginosa in preformed biofilm, OD600 (Example 7). Conditions: in combination with gentamicin; 6 h; phospholipid 512, 1024, 2048 μg/ml; FIGS. 10A-10D. Here is the method:
We performed in vitro studies of the capacity of phospholipids together with antibiotics to eradicate preformed bacterial biofilms. The tests were conducted as follows. Biofilm formation was obtained by culturing P. aeruginosa in cation-adjusted Mueller Hinton Broth after incubation at 37 degrees C. for 24 hours in 96 well plates. The medium was then removed and replaced by treatment solutions of gentamicin, phospholipids plus gentamicin, or control solutions. Four different phospholipids (MAPCHO-10, MAPCHO-12, MAPCHO-14, and MAPCHO-16) were tested at three different phospholipid test concentrations (512 μg/ml, 1024 μg/ml, and 2048 μg/ml). After 24 hours at 37 degrees C., media was removed and fresh medium was added and the 96-well plates were incubated at 37 degrees C. for 6 hours. Bacterial density was then analyzed and measured at OD600.

Experiment [7] concerns S. aureus (NCTC 8325) biofilm formation. Put plainly: Prevention of S. aureus (NCTC 8325) biofilm formation, crystal violet at 540 nm (Example 12). Conditions: agent alone (antibiotic alone at low concentrations, or phospholipid alone); 24 hours. Here is the method: We also performed in vitro tests of the capacity of phospholipids together with antibiotics to prevent formation of biofilms. Freshly grown S. aureus (NCTC 8325) were quantitated and placed in 96-well plates together with phospholipids plus gentamicin and tobramycin (antibiotics) or antibiotics alone. After 24 hours at 37 degrees C., the fluids were removed and the wells stained with crystal violet, and then the density of crystal violet in the wells was quantitated by absorption of light at 540 nm.

Experiment [8] relates to preformed S. aureus (ATCC BAA-1720) biofilms. Put plainly: Disruption of preformed S. aureus biofilm, crystal violet staining (Example 1). Conditions: agent alone (gentamicin alone or phospholipid alone). Here is the method: We performed in vitro studies of the capacity of phospholipids together with antibiotics to disrupt preformed bacterial biofilms. The tests were conducted as follows. Biofilm formation was obtained by culturing (1) S. aureus in tryptic soy broth media supplemented with 5% glucose; and (2) P. aeruginosa in cation-adjusted Mueller Hinton Broth after incubation at 37 degrees C. for 24 hours in 96 well plates. The medium was then removed and replaced by treatment solutions of antibiotics, antibiotics+phospholipids, phospholipids alone, or control solutions. Phospholipid concentration used in the assays was 512 μg/ml although in some studies, was […]. After 24 hours at 37 degrees C., media was removed and fresh medium was added and the 96-well plates incubated at 37 degrees C. for 24 hours. Media were then removed and biofilm at the base of the wells was stained with crystal violet and quantitated.

For experiment [9], the system named is S. aureus (ATCC BAA-1720) biofilm formation. The experiment is described as follows: Prevention of S. aureus biofilm formation, crystal violet at 540 nm (Example 2). Conditions: agent alone (gentamicin alone at low concentrations, or phospholipid alone); 24 hours. How it is done: We also performed in vitro tests of the capacity of phospholipids together with antibiotics to prevent formation of biofilms. Freshly grown S. aureus and P. aeruginosa were quantitated and placed in 96-well plates together with phospholipids plus gentamicin and tobramycin (antibiotics), phospholipids alone, antibiotics alone or controls solution. After 24 hours at 37 degrees C., the fluids were removed and the wells stained with crystal violet, and then the density of crystal violet in the wells was quantitated by absorption of light at 540 nm.

Setting [10] is: in combination with gentamicin, phospholipid 512, 1024 and 2048 μg/ml, FIGS. 4B-4D.
Setting [11] is: in combination with gentamicin, phospholipid 512, 1024 and 2048 μg/ml.
Where [12] appears, read: in combination with gentamicin, phospholipid 1024 or 2048 μg/ml, FIGS. 8B, 8C.

Regarding `CCCCCCCCCCOP(=O)([O-])OCC[N+](C)(C)C` [MAPCHO-10, N-decylphosphocholine], in the experiment on S. aureus, the “inhibition of S. aureus growth” value is recorded as “moderate inhibition”. In addition, the “prevention of S. aureus biofilm formation compared to gentamicin alone” value in experiment [1] is given as “more effective”. Moreover, the “inhibition of MRSA growth” value in the experiment with MRSA was “moderate inhibition”.
For `CCCCCCCCCCCCCCOP(=O)([O-])OCC[N+](C)(C)C` [MAPCHO-14, N-tetradecylphosphocholine], the “disruption of preformed P. aeruginosa biofilms” value in [2] (setting [10]) was “disruption of P. aeruginosa biofilms occurs”. The “eradication of preformed P. aeruginosa biofilms” value in [2] (setting [11]) is on record as “nearly complete eradication”. Also, the “inhibition of P. aeruginosa growth” value was “moderate inhibition” with P. aeruginosa [3] (6 h time point) and “significant inhibition” in the experiment on P. aeruginosa [3] (24 h time point). Further, in [4] (setting [12]), the “prevention of P. aeruginosa biofilm formation” value is reported as “effective at preventing”. Besides, the “inhibition of P. aeruginosa bacterial growth relative to gentamicin alone” value in the experiment with P. aeruginosa [5] is “more effective”. In addition, the “inhibition of P. aeruginosa bacterial growth in preformed biofilm relative to gentamicin alone” value in experiment [6] is given as “more effective”.
Regarding `CCCCCCCCCCCCCCCCOP(=O)([O-])OCC[N+](C)(C)C` [MAPCHO-16], in [2] (setting [10]), the “disruption of preformed P. aeruginosa biofilms” value is reported as “disruption of P. aeruginosa biofilms occurs”. Also, the “eradication of preformed P. aeruginosa biofilms” value in experiment [2] (setting [11]) is “nearly complete eradication”. Also, the “prevention of P. aeruginosa biofilm formation” value in [4] (setting [12]) is “effective at preventing”. The “inhibition of P. aeruginosa bacterial growth relative to gentamicin alone” value in the experiment with P. aeruginosa [5] is “more effective”. The “inhibition of P. aeruginosa bacterial growth in preformed biofilm relative to gentamicin alone” value in experiment [6] is given as “more effective”.
Consider `NC[C@H]1O[C@H](O[C@H]2[C@H](O)[C@@H](O[C@H]3O[C@H](CO)[C@@H](O)[C@H](N)[C@H]3O)[C@H](N)C[C@@H]2N)[C@H](N)C[C@@H]1O` [tobramycin, reference compound], for which the “prevention of biofilm formation by S. aureus (NCTC 8325)” value in experiment [7] is “did not prevent the formation of the biofilm”.
Regarding gentamicin [reference compound], in experiment [8], the “disruption of preformed biofilm of S. aureus” value is on record as “not successful”. Also, the “prevention of biofilm formation by S. aureus” value in experiment [9] was “does not prevent the formation of the biofilm”. In addition, in experiment [2] (gentamicin alone, FIG. 4A), the “disruption of preformed P. aeruginosa biofilms” value is recorded as “did not induce biofilm disruption”. Also, the “prevention of P. aeruginosa biofilm formation” value in experiment [4] (gentamicin alone, FIG. 8A) is “unable to prevent”. The “prevention of biofilm formation by S. aureus (NCTC 8325)” value in experiment [7] is given as “did not prevent the formation of the biofilm”.

The record behind these values is US11413297B2, “Therapies for treating and preventing chronic rhinosinusitis” (Avanti Polar Lipids, LLC, priority 2017, dated 2022).
